In one data set the target is ERβ (Homo sapiens, UniProt Q92731). Kind of data set: Luciferase reporter gene assay (3*ERE) in HEK293 cells, ERβ. In kind it is cell-based. On the set-up: expressed in transfected cells; host or cells: HEK293 cells, transient transfection. Particulars: for Emax: HEK293, 48 h, read-out: Luciferase Erβ % Eff. Here is the method:
HEK293 cells were grown to 70% confluency in DMEM containing 10% calf serum (Hyclone) prior to transfection. On the day of transfection (day 1), expression vectors for ERα or ERβ were cotransfected along a construct containing a synthetic 3*ERE upstream of the luciferase gene (Panomics), using Polyfect (Qiagen) per manufacturer's recommendations (ERE being estrogen response element). Sixteen hours post-transfection, cells were incubated in serum free DMEM. […] Cells extracts were then obtained by lyzing and the Luciferase activity measured, all of these steps performed using a commercially available kit (Promega).
Background: Reporter assays use an easily measured gene product as a stand-in for the process of interest.

The next data set relates to CFA-treated animals. The experiment in a line: Complete Freund's Adjuvant (CFA) model of chronic inflammation. Particulars: 10 mg/kg sc, 24 hrs after drug administration. In kind it is in vivo, Rats. The procedure:
Rats were treated with Complete Freund's Adjuvant (CFA). After 4 days (upon reaching stable inflammation), CFA-treated animals were treated with 10 mg/kg subcutaneously (sc) of Compound 8, incomplete Freund's Adjuvant or vehicle, respectively. Responses were measured 24 hrs after drug administration. […] Latencies, expressed in seconds (sec), were defined as the time needed for the animal to remove the treated paw from the hot surface.

Data set [1] can be described thus: Brain to plasma ratio in rats. Type of data set: in vivo.
Data set [2] can be described thus: Microsomal bioavailability (Table 2). Type of data set: in vitro ADME. Conditions: read-out: Microsomal bioavailability F (%).
Data set [3] deals with L5/L6 spinal nerve ligation. The experiment in a line: Spinal nerve ligation model of neuropathic pain. In kind it is in vivo, male Sprague-Dawley rats. Particulars: s.c. Here is the method:
Spinal nerve ligation of the L5/L6 nerve was done as originally described by Kim and Chung, using male Sprague-Dawley rats. Allodynia was assessed by applying a light tactile stimulus (Von Frey hairs) to the plantar surface of the surgical paw until the 50% threshold is established. A positive response is recorded if the paw is sharply withdrawn. Eight VonFrey hairs were used (3.61, 3.84, 4.08, 4.31, 4.56, 4.74, 4.93 and 5.18).

Data set [4] is described as follows: Metabolic stability in liver microsomes, human. Type of data set: in vitro ADME. Conditions: low value = metabolically stable. Here is the method:
(§1) Also the metabolic stability in liver microsomes was tested for some compounds.

Data set [5] can be described thus: Initial toxicity studies, in vitro and in vivo.
A short description of data set [6]: Bioavailability after intravenous and sublingual administration in male beagle dogs. Type of data set: in vivo. Conditions: for half-life: 10 mg/kg. The procedure: In this example, the sublingual bioavailability of Compound 8 was evaluated after intravenous and sublingual doses in male beagle dogs. The test compound was dosed at 1 and 10 mg/kg through intravenous and sublingual routes, respectively. Plasma samples were collected 10 min, 20 min, 30 min, 45 min, 1 hour, 2 hours, 4 hours, 8 hours, 12 hours and 24 hours post dose. Plasma levels were determined by LC-MS/MS analysis. A pre-study standard curve was analyzed to determine the specificity, range and lower limit of quantification of the LC-MS/MS method. The study samples were treated identically to the standards. Pharmacokinetic parameters were estimated by a non-compartmental model using WinNonlin v4.1 software.

A short description of data set [7]: Bioavailability after intravenous, oral and sublingual administration in rat. Particulars: in vivo, rats. Here is the method:
Similarly to the Example above, Compound 8 was also administered to rat intravenously, orally and sublingual. Also the prodrug of Compound 8, i.e. Compound 9, was administered. The bioavailability (% F) indicated for the prodrug Compound 9 is the results of measurements of the bioavailability for Compound 8, which Compound 9 is converted into upon administration. AUC 0-4 was used for calculation of the bioavailability.

The test system of another data set is Taxol-induced allodynia. Kind of data set: Taxol-induced neuropathy model. Conditions: 2 hours post-dose. In kind it is in vivo, male SD rats. Here is the method:
Neuropathy was induced in male SD rats by 4×1 mg/kg consecutive daily doses of taxol as described (Naguib M, Diaz P, Xu J J, Astruc-Diaz F, Craig S, Vivas-Mejia P, Brown D L. MDA7: a novel selective agonist for CB2 receptors that prevents allodynia in rat neuropathic pain models. Br J. Pharmacol. 2008 December; 155(7):1104-16). The presence of tactile allodynia (von Frey filament 50% response threshold of <5 g) was confirmed prior to inclusion in the study. Drugs were administered sub-cutaneously (s.c.) except gabapentin was given intra-peritoneally (i.p.). Doses are given in mg/kg. * p<0.05.
Allodynia was assessed by applying a light tactile stimulus (Von Frey hairs) to the plantar surface of the surgical paw until the 50% threshold was established. A positive response was recorded if the paw was sharply withdrawn. Eight VonFrey hairs were used (3.61, 3.84, 4.08, 4.31, 4.56, 4.74, 4.93 and 5.18). MPE (%) was calculated as [(Rdrug−Rveh)/(Rsham−Rveh)]*100% where Rveh was 4 and Rsham was 13. Repeat dosing (FIG. 10C) was performed by administering the indicated doses of Compound 8 once daily via the s.c. route. Efficacy was measured 2 hours post-dose.

The next data set deals with MCP-1. The experiment in a line: ELISA for MCP-1 in PBMCs after 6OHDA lesion. In kind it is in vivo, rat. Conditions: 6OHDA rats, blood day 7 post-surgery. Here is the method:
(§2) Thus, Compound 8 was assessed to determine whether ERβ agonist treatment might alter the inflammatory profile following bilateral 6OHDA lesions of the SN. ELISAs for tumor necrosis factor α (TNFα), monocyte chemotactic protein 1 (MCP-1 aka CCL2), interleukin-6 (IL-6), and interleukin-1β were conducted in peripheral blood mononuclear cells (PBMCs) and brain tissue homogenates from sham or 6OHDA treated animals. […] Both TNFα and MCP-1 were elevated in PBMCs from 6OHDA animals (data not shown). Thus, these two markers were chosen for further examination. […] Treatment with Compound 8 prevented the rise in TNFα in both brain and PBMCs (FIG. 6). MCP-1 was elevated in PBMCs following 6OHDA when blood was taken on day 7 post-surgery, but not in brain homogenates taken on day 14 (following behavioral testing). The increase in MCP-1 in PBMCs was not prevented by Compound 8 treatment, even though the behavioral profile was normal. Thus, TNFα might be a maker of an inflammatory pathway triggered by 6OHDA infusion and prevented by treatment with an ERβ agonist in a manner that also prevents motor deficits and dopamine neuron loss in the substantia nigra.

Data set [8] in a line: Metabolic stability in liver microsomes, rat. In kind it is in vitro ADME. Conditions: low value = metabolically stable. Here is the method:
as §1
Background: Microsomes from liver hold many membrane-bound enzymes, among them those of drug oxidation.

In a further data set the test system is TNFα. Kind of data set: ELISA for TNFα in PBMCs and brain homogenate after 6OHDA lesion. Type of data set: in vivo, rat. Particulars: 6OHDA rats. The procedure: as §2
The mark [9] stands for this setting: dog intravenous 1 mg/kg vs parameters observed in rats.

The structures appear in SMILES notation. Like-named read-outs stand apart in the source and are kept apart here.

Sequence of ERβ (Q92731 whole entry, species assumed): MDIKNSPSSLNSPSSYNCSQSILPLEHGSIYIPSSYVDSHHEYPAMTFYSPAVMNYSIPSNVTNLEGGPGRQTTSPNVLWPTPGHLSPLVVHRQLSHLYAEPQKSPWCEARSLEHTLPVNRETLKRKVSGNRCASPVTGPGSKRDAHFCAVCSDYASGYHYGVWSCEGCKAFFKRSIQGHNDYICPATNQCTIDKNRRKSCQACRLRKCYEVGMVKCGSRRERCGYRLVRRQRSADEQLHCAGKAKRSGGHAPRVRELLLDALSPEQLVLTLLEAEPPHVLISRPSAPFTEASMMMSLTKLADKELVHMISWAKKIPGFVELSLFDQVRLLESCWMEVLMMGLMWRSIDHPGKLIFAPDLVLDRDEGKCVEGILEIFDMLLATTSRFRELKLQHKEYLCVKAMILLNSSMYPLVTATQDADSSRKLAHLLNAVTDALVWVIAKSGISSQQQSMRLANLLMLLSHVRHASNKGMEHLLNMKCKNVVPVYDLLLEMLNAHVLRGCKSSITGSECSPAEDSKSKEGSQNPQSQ

Take `Oc1ccc(C2(c3ccccc3F)CCC(F)(F)CC2)cc1` [Compound 8, 4-(4,4-Difluoro-1-(2-fluorophenyl)cyclohexyl)phenol]: on ERβ, a half-maximal effect (EC50) was put at 0.631 nM. For the same compound, the Emax at ERβ was 96%. Further, in the data set on CFA-treated animals, the “edema in the treated paw (inflammation)” value is “inhibits hyperalgesia and inflammation”. The “thermal hyperalgesia, 52° C. hot plate latency” value with CFA-treated animals is on record as “inhibits hyperalgesia”. Further, in data set [1], the “brain to plasma ratio” value was “good brain to plasma ratio”. Besides, in data set [2], the Microsomal bioavailability (predicted from microsomes) is 4.2%. The “allodynia (Von Frey 50% threshold)” value in data set [3] is given as “reverses allodynia”. In addition, the microsomal CLint in data set [4] stood at 11 µL/min/mg; in data set [8], 150 µL/min/mg. For the same compound, the “tolerability in initial toxicity studies” value in data set [5] is “well tolerated”. Moreover, the “Cmax increase compared to rats” value in data set [6] (setting [9]) came to 2 fold. Further, the “clearance decrease compared to rats” value in data set [6] (setting [9]) came out at 2 fold. Besides, in data set [6] (setting [9]), the “volume of distribution decrease compared to rats” value is recorded as 2 fold. In addition, the half-life was 2.08 ± 0.5 h in [6] (male, beagle, dog, plasma, dog, sublingual 10 mg/kg, read-out: average half-life (converted)) and 2 h in data set [6] (male, beagle, dog, plasma, dog, sublingual, as summarised, read-out: half life (converted)). Further, the bioavailability in data set [6] (male, beagle, plasma, other: sublingual, dog, sublingual 10 mg/kg vs intravenous 1 mg/kg, read-out: overall percent bioavailability following sublingual dose) was 44%; in data set [7] (po, Compound 8 dosed orally, read-out: oral bioavailability), about 8%; in data set [7] (Compound 8 dosed sublingually, read-out: sublingual bioavailability), 79%. For the same compound, the clearance in [6] (male, beagle, plasma, dog, intravenous 1 mg/kg) is 47 mL/min/kg. Moreover, the Cmax worked out at 738 ± 199 ng/mL in data set [6] (male, beagle, plasma, dog, intravenous 1 mg/kg, read-out: average maximum concentration (Cmax)) and 1060 ± 110 ng/mL in data set [6] (male, beagle, plasma, dog, sublingual 10 mg/kg, read-out: Cmax). Besides, the Vd in [6] (male, beagle, plasma, dog, intravenous 1 mg/kg, read-out: volume of distribution) was 3.5 ± 0.9 L/kg. Further, in the data set with Taxol-induced allodynia (once daily s.c.), the “efficacy on repeat dosing” value was “maintained over 5 days”. The “effect on Taxol-induced allodynia” value in the data set with Taxol-induced allodynia (s.c. (gabapentin i.p.), Compound 8 at 10 and 30 mg/kg) is on record as “essentially complete reversal”. Moreover, the “6OHDA-induced increase of MCP-1 in PBMCs” value with MCP-1 is on record as “not prevented”. Also, the “6OHDA-induced increase of TNFα in PBMCs and brain” value in the data set with TNFα is “blocked this increase”.

On to `Oc1ccc(C2(c3ccccc3Cl)CCCCC2)cc1F` [Compound 957], for which, on ERβ, the EC50 was 1.26 nM and the Emax came out at 62%. In data set [4], this compound displayed an intrinsic clearance (microsomal CLint) of 20 µL/min/mg. This compound also had a microsomal CLint in data set [8] of 450 µL/min/mg.

Regarding `Oc1ccc(C2(c3cccc(F)c3Cl)CCCCC2)cc1` [Compound 623], on ERβ, a half-maximal response (EC50) required 5.01 nM and the Emax was 99%.

Broadly, the EC50 is the midpoint of the concentration-response curve. Low values mean higher potency in that assay, high ones lower potency in that assay. Usually microsomal CLint stands for the capacity of the preparation to metabolise the compound, expressed as a volume cleared per time. A lower microsomal CLint goes with slow turnover. In general, half-life refers to how long it takes for the measured level to halve. A word on the bioavailability: it is dose-corrected exposure relative to a reference, in per cent. One may read the clearance as a measure of how efficiently the substance is removed, as volume per time. The low end stands for inefficient removal, the high end for efficient removal.

(Values after US9061981B2, “Diphenyl substituted cyclohexane derivatives, useful as modulators of the estrogen receptors beta” (Acadia Pharmaceuticals Inc., priority 2011, dated 2015).)
